Tests used:
[1] = system: oxygen radical-forming activity of peritoneal exudate cells (PEC) of mice; assay: Spontaneous CL and induced CL chemiluminescence test: inhibition of oxygen radical liberation from peritoneal exudate cells (30 min preincubation); assay type: cell-based; parameters: concentration or dose not given beside the values; settings: for Inhibition in vitro of the oxygen radical liberation, Chemiluminescence Test % inhibition, Ind. CL: induced CL, after ZyC3b activation; for Inhibition in vitro of the oxygen radical liberation, Chemiluminescence Test % inhibition, Spnt. CL: spontaneous CL, before ZyC3b
Protocol: 1. To determine the inhibiting effect on the oxygen radical-forming activity of inflamed cells, the in vitro inhibition of the release of oxygen radicals from activated peritoneal exudate cells (=PEC) of mice was determined in the chemiluminescence (CL) test according to the method of Mueller-Peddinghaus (Int. J. Immunopharmac. 6, 455-466 (1984)). […] The intensity of the chemiluminescence is a measurement of the oxygen radical content in the suspension and thus the degree of activity of the inflamed cells. In this, three functionally different parameters are detected, the spontaneous CL, the induced CL and the peak CL. The spontaneous CL and the induced CL on the one hand and the peak CL on the other hand differ from each other because in the first two parameters the test substances are in contact with the cells for a 30 minute preincubation period before the inflammation irritant is added, whereas with the peak CL the cells are first stimulated, and the test substance is added at the peak of their activity. The measurement of the spontaneous CL thus detects the influence of the test substance on the relative rest activity of inflamed cells, the induced CL represents the effect of the test substances on the activatability of the cells and the inhibition of the peak CL indicates the effect of the test substances on the maximum activity of the inflamed cells. 1.1 Production of PEC suspension used in the test. In order to induce the PEC formation, female mice of 20-25 g body weight were each injected i.p. with 2 ml of a 3% solution of thioglycollate in sterile isotonic sodium chloride solution. Twenty four hours after the thioglycollate injection the cells, which predominantly consisted of polymorphonuclear leucocytes, were recovered by washing out of the abdominal cavity and washed twice. As cell culture medium there was added a commercially available solution under the designation RPMI 1640 (pH 7.2) (produced by Flow Laboratories, […], Germany), which contains 10% fetal calf serum (FCS, produced by Seromed GmbH, Munich, Germany) 18 μmol/l sodium bicarbonate and 2 μmol/l L-glutamine. The cell pellets of four animals each time were resuspended in cell culture medium, collected together and the suspension was made up to 2×10^6 cells per ml with cell culture medium. The cell suspensions were kept under ice cooling until their use the same day. 1.2 Production of the complement opsonized zymosan (=ZyC3 b) suspension used for activation. 200 mg zymosan (glycoprotein mixture isolated from the cell walls of brewer's yeast, Sacchomyces […], produced by Sigma Chemical Co., Munich, Germany) were suspended in 10 ml phosphate buffer solution according to Dulbecco (produced by Flow Laboratories, […], Germany), well stirred and heated for thirty minutes in a water bath to 100° C. After cooling, it was centrifuged for five minutes at 4° C. and at 600 ×g and the supernatant was discarded. The sediment was resuspended in 50 ml human serum and incubated for thirty minutes at 37° C. in a shaking water bath. Then it was centrifuged for five minutes at 600 ×g and 420 C., the supernatant decanted and the sediment washed with phosphate buffer solution. The working suspension of 8×10^-3 g ZyC3 b/ml was produced from the sediment by dilution with phosphate buffer solution (Mueller-Peddinghaus et al., Zbl. Vet. Med. B. 30, 559-575). 1.3 Chemiluminescence (CL) measurement (Peak-CL). […] At the end of this preincubation phase, 100 μl lucigenin were added, and in the course of the subsequent sixteen minute incubation phase the spontaneous CL parameter was determined with two measuring points. Then 100 μl ZyC3 b+100 μl phosphate buffer were added, and during the course of the subsequent twenty-four minute cell activation the induced CL parameter was measured with three measuring points. All measurements were determined twice. The parameters spontaneous CL and induced CL were determined on the same day with two separate cell pools.

male mice = assay: Determination of the minimum toxic dose; assay type: in vivo; settings: max. dose 300 mg/kg, 24 h
Protocol: 3. Determination of the minimum toxic dose.
Male mice of 20 to 25 g weight were given maximal doses of 300 mg/kg of test substance per os. The animals were carefully watched over a period of three hours for toxicity symptoms. Over a period of twenty-four hours after administration, all symptoms and deaths were recorded. Associated symptoms were also watched and recorded. If death or strongly toxic symptoms were noted, further mice were given increasingly lower doses. The lowest dose which brought about death or strongly toxic symptoms was reported as the minimum toxic dose.

[2] = system: carrageenin foot edema in male Wistar rats; assay: Inhibition of carrageenin foot edema in rats (Winter et al.); assay type: in vivo; settings: Rattus norvegicus, 2 h after irritant; for inhibition in vivo at 100 µmol/kg: 100 μmol/kg p.o.
Protocol: A similar volume of isotonic sodium chloride solution was injected in the left hind foot. The volume of the each rat's foot was measured plethysmometrically both before and two hours after administration of the irritant, and the swelling of the foot volume after the carrageenin application was compared to the foot which was treated only with sodium chloride solution The inhibition of edema formation by the test substances in the treated animals was compared in percentage terms with the animals of the untreated control group.

Structure (SMILES)	Inhibition in vitro of the oxygen radical liberation, Chemiluminescence Test % inhibition, Ind. CL [1] [%]	Inhibition in vitro of the oxygen radical liberation, Chemiluminescence Test % inhibition, Spnt. CL [1] [%]	Minimal toxic dose mg/kg mouse p.o. (male mice) [mg/kg]	inhibition in vivo at 215 µmol/kg ([2]; ip, 215 μmol/kg i.p.) [%]	inhibition in vivo at 100 µmol/kg ([2]; po) [%]	inhibition in vivo at 215 µmol/kg ([2]; po, 215 μmol/kg p.o.) [%]
Cl.O=C(c1c(-c2ccccc2)oc2ccccc2c1=O)N1CCN(c2ccccn2)CC1 [Example 1c, 3-{[4-(2-Pyridyl)-piperazin-1-yl]-carbonyl}flavone hydrochloride]	39	49	> 300	55	44	–
O.O=C(O)C(O)C(O)C(=O)O.O=C(c1c(-c2ccccc2)oc2ccccc2c1=O)N1CCN(Cc2ccccc2)CC1 [Example 2b, 3-[(4-benzyl-piperazin-1-yl)-carbonyl]flavone tartrate monohydrate]	54	67	> 300	–	25	–
CCN(CC)CCCOC(=O)c1c(-c2ccccc2)oc2ccccc2c1=O.Cl [Example 3b, 3-[3-(diethylamino)propoxycarbonyl]flavone hydrochloride]	83	94	300	–	–	–
O=C(NCCCCN1CCN(c2ccccn2)CC1)c1c(-c2ccccc2)oc2ccccc2c1=O [Example 4e, 3-{4-[4-(2-pyridyl)-piperazin-1-yl]-butylaminocarbonyl}flavone]	82	95	300	54	–	50
COc1cc(-c2oc3ccccc3c(=O)c2C(=O)N2CCN(c3ccccn3)CC2)cc(OC)c1OC [Example 7a, 3',4',5'-trimethoxy-3-{[4-(2-pyridyl)-piperazin-1-yl]-carbonyl}flavone]	65	75	> 300	–	–	–
COc1cc(-c2oc3ccccc3c(=O)c2C(=O)N2CCN(c3ccccn3)CC2)cc(OC)c1OC [Example 7b, 3',4',5'-trimethoxy-3-{[4-(2-pyridyl)-piperazin-1-yl]-carbonyl}flavone]	50	61	> 300	–	–	40
O.O.O=C(O)C(O)C(O)C(=O)O.O=C(c1c(-c2cc(O)c(O)c(O)c2)oc2ccccc2c1=O)N1CCN(Cc2ccccc2)CC1 [Example 14e, 3',4',5'-trihydroxy-3-[(4-benzylpiperazin-1-yl)carbonyl] -flavone tartrate dihydrate]	99	98	> 300	33	–	–
CN1CCN(CCCCNC(=O)c2c(-c3ccccc3)oc3ccccc3c2=O)CC1 [Example 24]	14	55	> 300	–	–	–
O=C(c1c(-c2cccc(O)c2)oc2ccccc2c1=O)N1CCN(Cc2ccccc2)CC1 [Example 30]	85	85	> 300	–	–	–
COc1ccc(-c2oc3ccccc3c(=O)c2C(=O)N2CCN(c3ccccn3)CC2)cc1OC [Example 32b]	65	71	> 300	–	–	–
COc1cc(OC)c2c(=O)c(C(=O)N3CCN(c4ccccn4)CC3)c(-c3ccccc3)oc2c1 [Example 34]	55	54	–	–	–	30
CC(=O)Oc1cc(-c2oc3ccccc3c(=O)c2C(=O)N2CCN(c3ccccn3)CC2)cc(OC(C)=O)c1OC(C)=O [Example 39b]	99	99	–	62	–	–
O=C(NCCc1ccccn1)c1c(-c2cc(O)c(O)c(O)c2)oc2ccccc2c1=O [Example 53]	83	73	–	50	–	–
COc1cc(-c2oc3ccccc3c(=O)c2C(=O)NCCCCN2CCN(c3ncccn3)CC2)cc(OC)c1OC [Example 54]	83	91	> 300	40	–	–
